# Like-named read-outs stand apart in the source and are kept apart here.
# Key:
# [1] = Binding constants of Motor1 towards guests; conditions: host Motor1
# [2] = Binding affinities of compounds towards Motor2
# HEK293 = test: AK (adenylate kinase release) cytotoxicity assay, HEK293; type: cell-based
# Excerpt: FIG. 27. Toxicology of Motor1 using the human kidney cell line HEK293. Results from (A) MTS assay (B) AK assay. Untreated population (UT), Distilled water (D), Erythromycin (E), Erythromycin Estolate (EE).
# (§1) Toxicity Studies: To measure the cellular toxicity of Motor1 we use two complementary assays: an MTS (CellTiter 96 AQueous Kit®) assay that measures cellular metabolism, and a cytotoxicity assay (Toxilight®BioAssay Kit) that measures cell death via the release of the cytosolic enzyme adenylate kinase into the supernatant. Both assays were used with two different cell lines commonly used in drug toxicity studies, HEK293 and HepG2 cell lines. HEK293, a human kidney cell line, is used to assess the effect of the drug candidate on the renal system and HepG2, a human hepatocyte cell line, is used to assess the response of liver cells where drugs are metabolized. Both assays included the use of an untreated population, and cells treated with distilled water, erythromycin and erythromycin estolate. Erythromycin is a commercially available drug widely used to treat bacterial infections. […] […].
# (§2) Both cell lines were incubated with the containers (0.01, 0.1, 1 and 10 mM) for 2 days prior to analysis with the two assays. Relative absorbance and luminescence data was normalized to percent cell viability (MTS) and cell death (AK). For the MTS assay, the untreated cells were set at 100% cell viability while the cell population treated with distilled water was set at a 100% cell death for the AK assay.
# [3] = Binding of Motor1 and Motor2 with Ketamine (Rhodamine 6G indicator competition, UV-VIS); conditions: Rhodamine 6G displacement titration, 20 mM phosphate buffer pH 7.4
# [4] = Binding of Motor1 and Motor2 with Etomidate
# [5] = Self-association study by 1H NMR at varied concentration; type: physicochemical; conditions: 20 mM NaD2PO4, pD=7.4, 1H NMR
# [6] = system: rocuronium-induced neuromuscular block; test: Reversal of rocuronium-induced neuromuscular block in anesthetized rats; type: in vivo; conditions: for Time until normal breathing recovered: rocuronium 3.5 mg/kg, placebo 720 s; for Time until quadriceps femoris twitch height normalized: rocuronium, placebo 960 s
# Method: (§3) Spontaneous breathing was maintained during surgery and if possible according to normal protocol. Rats lay in the supine position with the head supported in a neutral position in the midline on a soft piece of tissue. The left femoral vein and artery were cannulated for drug infusion and blood sampling. […] Corning, N.Y., USA) and continuous measurement of blood pressure (PowerLab; ADInstruments, Colorado Springs, Mo.) and heart rate were performed. If mechanical ventilation was necessary animals were ventilated through a tracheostomy (SAR-830; CWE, Ardmore, Pa., USA). Rectal temperature was kept at 37.0±0.1° C. using a thermostatic heating pad (FHC, Bowdoinham, Me.). Level of anesthesia was maintained throughout the experiment to eliminate cardiovascular response to tail pinch. In all treatment groups, systemic physiological parameters were kept well within normal range. The right leg was shaved and the femoral nerve was stimulated supramaximally with subcutaneous needle electrodes, and the evoked response of the quadriceps femoris muscle was measured by accelerometry, with the TOF-Watch SX Monitor (Organon Ireland Ltd, a part of Schering-Plough Corporation, Dublin, Ireland), as described previously (Fassbender et al, Anesthesiology 2007). The transducer was fixed to the skin ventromedially at the proximal end of the thigh, next to the tibial tuberosity (insertion point of the patellar ligament). […] Endpoints included time to recovery of spontaneous breathing, twitch height as well as TOF-ratio.
# [7] = system: cisatracurium-induced neuromuscular block; test: Reversal of cisatracurium-induced neuromuscular block in anesthetized rats; type: in vivo; conditions: for Time until normal breathing recovered / Time until quadriceps femoris twitch height normalized: cisatracurium; for Time until normal breathing recovered: placebo 750 (17) s, means (SD); for Time until quadriceps femoris twitch height normalized: placebo 1002 (122) s
# Method: as §3
# ketamine anesthesia = test: Reversal of ketamine anesthesia in rats; type: in vivo
# [8] = rat, in vivo
# HepG2 = type: cell-based; conditions: untreated population 60%
# Excerpt: FIG. 28. Toxicology of Motor1 using the human liver cell line HepG2. Results from (A) MTS assay (B) AK assay. Untreated population (UT), Distilled water (D), Erythromycin (E), Erythromycin Estolate (EE).
# as §1, §2
# [9] = Tolerance in mice after tail vein injection (body weight); type: in vivo; conditions: tail vein injection at day 0, 4 and 8, weight monitored
# Method: FIG. 30. […] Indicated amounts of Motor1 were injected into the tail vein of outbred Swiss Webster mice at day 0, 4 and 8. The weight of each mouse was monitored over time and there were 5 mice per experimental group.
# Indicated amounts of Motor1 were injected into the tail vein of outbred Swiss Webster mice at day 0, 4 and 8. The weight of each mouse was monitored over time and there were 5 mice per experimental group.
# [10] = rat, in vivo; remark: listed apart in the source
# [11] = ketamine anesthesia, Motor2 200 mg
compound,measurement,setting,value
CC(=O)O[C@H]1C[C@@H]2CC[C@@H]3[C@H](CC[C@@]4(C)[C@H]3C[C@H]([N+]3(C)CCCCC3)[C@@H]4OC(C)=O)[C@@]2(C)C[C@@H]1N1CCCCC1 [vecuronium],"Ka, binding constant of Motor1 towards guest",[1],5.8 ± 0.9 × 10^6
same,Ka (M^−1) with Motor2,[2],1.6 ± 0.2 × 10^9 M^−1
COc1cc2c3cc1Oc1cc(ccc1O)C[C@@H]1c4c(cc(OC)c(O)c4Oc4ccc(cc4)C[C@@H]3N(C)CC2)CC[N+]1(C)C [tubocurarine],"Ka, binding constant of Motor1 towards guest",[1],4.7 ± 0.2 × 10^5
Nc1ccc2cc3ccc(N)cc3nc2c1 [Proflavin],Ka (M^−1) with Motor2,[2]; host Motor2,7.8 ± 0.8 × 10^8 M^−1
COc1ccc(CC2c3cc(OC)c(OC)cc3CC[N+]2(C)CCC(=O)OCCCCCOC(=O)CC[N+]2(C)CCc3cc(OC)c(OC)cc3C2Cc2ccc(OC)c(OC)c2)cc1OC (centres unmarked) [Atracurium besilate],Ka (M^−1) with Motor2,[2]; host Motor2,1.0 ± 0.1 × 10^9 M^−1
Cyclohexanediamine,Ka (M^−1) with Motor2,[2]; host Motor2,2.1 ± 0.2 × 10^8 M^−1
CCC(=O)O[C@H]1[C@H](O[C@@H]2[C@@H](C)[C@H](O[C@H]3C[C@@](C)(OC)[C@@H](O)[C@H](C)O3)[C@@H](C)C(=O)O[C@H](CC)[C@@](C)(O)[C@H](O)[C@@H](C)C(=O)[C@H](C)C[C@@]2(C)O)O[C@H](C)C[C@@H]1N(C)C [Erythromycin estolate],Percent cell death (AK),"HEK293; human, 2 days, 1 mM",49%
CC12N3Cc4c(c(OCCCS(=O)(=O)[O-])c5ccccc5c4OCCCS(=O)(=O)[O-])CN1C(=O)N1CN4C(=O)N5CN6C(=O)N7CN8C(=O)N9Cc%10c(c(OCCCS(=O)(=O)[O-])c%11ccccc%11c%10OCCCS(=O)(=O)[O-])CN%10C(=O)N(CN%11C(=O)N(CN%12C(=O)N(CN(C3=O)C12C)C4C%125)C6C%117)C8(C)C%109C.[Na+].[Na+].[Na+].[Na+] (centres unmarked) [Motor2],Binding constant (Ka) with Ketamine,[3],193490 M⁻¹
same,Binding constant with Etomidate,[4],36812 M⁻¹
same,"Ka, two-fold self-association model",[5],624 M⁻¹
same,Mean time to recovery of the twitch height to 90%,"[6]; complete rocuronium-induced block, 90 mg, placebo 19 minutes",2.5 min
same,"Speed of reversal of cisatracurium, twitch height recovery (comparison)",[7]; low-dose Motor2 versus high-dose Motor1,reverses the benzylisoquinolinum cisatracurium faster than high-dose 1
same,Reversal of ketamine anesthesia (in words),"ketamine anesthesia; ketamine 1500 μg/kg/min, Motor2 200 mg at 60 minutes",reverses ketamine anesthesia
same,Electroencephalogram (EEG),ketamine anesthesia; [11],wakefulness-like electrical activity
same,Respiratory rate and arterial blood pressure,ketamine anesthesia; [11],increased
same,Time until the rat woke up after injection,"ketamine anesthesia; steady-state ketamine infusion, Motor2 200 mg",≤ 2 min
same,"Side effects on arterial blood-gas analysis, EKG, arterial blood pressure, heart rate",[8],did not have any side effects
COc1ccc(CC2c3cc(OC)c(OC)cc3CC[N+]2(C)CCC(=O)OCCCCCOC(=O)CC[N+]2(C)CCc3cc(OC)c(OC)cc3C2Cc2ccc(OC)c(OC)c2)cc1OC (centres unmarked) [atracurium],"Ka, binding constant of Motor1 towards guest",[1],1.4 ± 0.1 × 10^6
CC[C@H]1OC(=O)[C@H](C)[C@@H](O[C@H]2C[C@@](C)(OC)[C@@H](O)[C@H](C)O2)[C@H](C)[C@@H](O[C@@H]2O[C@H](C)C[C@H](N(C)C)[C@H]2O)[C@](C)(O)C[C@@H](C)C(=O)[C@H](C)[C@@H](O)[C@]1(C)O [Erythromycin],Percent cell death (AK),"HEK293; HEK293, 1 mM",25%
CC12N3Cc4c(OCCCS(=O)(=O)[O-])ccc(OCCCS(=O)(=O)[O-])c4CN1C(=O)N1CN4C(=O)N5CN6C(=O)N7CN8C(=O)N9Cc%10c(OCCCS(=O)(=O)[O-])ccc(OCCCS(=O)(=O)[O-])c%10CN%10C(=O)N(CN%11C(=O)N(CN%12C(=O)N(CN(C3=O)C12C)C4C%125)C6C%117)C8(C)C%109C.[Na+].[Na+].[Na+].[Na+] (centres unmarked) [Motor1],Binding constant (Ka) with Ketamine,[3],39020 M⁻¹
same,Binding constant with Etomidate,[4],35318 M⁻¹
same,"Ka, two-fold self-association model",[5],47 M⁻¹
same,Percent cell death (AK),"HEK293; HEK293, all concentrations (0.01, 0.1, 1 and 10 mM)",below 5%
same,% cell death (AK),"HepG2; HepG2, 0.01 mM",55%
same,% cell death (AK),"HepG2; HepG2, 0.1 mM",56%
same,% cell death (AK),"HepG2; HepG2, 1 mM",50%
same,% cell death (AK),"HepG2; HepG2, 10 mM",17%
same,Tolerance in mice,[9],well tolerated
same,Mean recovery of spontaneous breathing,"[6]; complete rocuronium-induced block, 90 mg as printed",723 s
same,Mean recovery of spontaneous breathing,"[6]; complete rocuronium-induced block, dose not given",10 s
same,Reversal of rocuronium (in words),"[6]; rats, Motor1 10, 20, 30 mg","reversed rocuronium effectively, in a dose-dependent fashion"
same,Time until normal breathing recovered,[6]; Motor1 10 mg,120 ± 15 s
same,Time until normal breathing recovered,[6]; Motor1 20 mg,15 ± 5 s
same,Time until normal breathing recovered,[6]; Motor1 30 mg,8 ± 3 s
same,Time until quadriceps femoris twitch height normalized,[6]; Motor1 10 mg,240 s
same,Time until quadriceps femoris twitch height normalized,[6]; Motor1 20 mg,120 s
same,Time until quadriceps femoris twitch height normalized,[6]; Motor1 30 mg,60 s
same,Time until normal breathing recovered,[7]; 30 mg Motor1,28 (6) s
same,Time until normal breathing recovered,[7]; 60 mg Motor1,11 (4) seconds
same,Time until quadriceps femoris twitch height normalized,[7]; first Motor1 dose listed (dose not given; 15 mg),266 (17) s
same,Time until quadriceps femoris twitch height normalized,[7]; second Motor1 dose listed (30 mg),130 (14) s
same,Time until quadriceps femoris twitch height normalized,[7]; third Motor1 dose listed (60 mg),68 (10) s
same,Percent hemolysis,human erythrocytes,≤ 20%
same,Toxicity to human erythrocytes (overall),human erythrocytes,non-toxic
same,"Arterial blood gas parameters pH, pCO2, and pO2",[8],did not change
same,Heart rate and mean arterial blood pressure,[8],did not change
same,"Side effects on arterial blood-gas analysis, EKG, arterial blood pressure, heart rate",[8],did not have any side effects
same,Motor1 concentration in the urine relative to plasma,[10],equals concentration in the plasma
CC[N+](CC)(CC)CCOc1cccc(OCC[N+](CC)(CC)CC)c1OCC[N+](CC)(CC)CC [gallamine],"Ka, binding constant of Motor1 towards guest",[1],6.2 ± 0.5 × 10^6
same,Ka (M^−1) with Motor2,[2],3.2 ± 0.4 × 10^8 M^−1

# Reference: patent US9469648B2, “Reversal of drug-induced neuromuscular block using novel molecular containers” (University of Maryland, College Park, priority 2010, dated 2016)
